# Measured values taken from patent publication US20170209417A1, “POLYCOMPLEX GEL FOR TREATING DISEASES OF INTESTINAL/DIGESTIVE TRACT” (priority 2014, published 2017).
# Legend:
# rabbits = details: rabbit, in vivo
# Description: Besides, it is necessary to point out that the claimed polycomplex gel is characterized by the absence of allergenic properties. Considering the fact that nowadays, an obligatory stage of a new medicine study is the evaluation of the allergenicity thereof, the claimed polycomplex gel has passed a verification on the basis of the Arthus-Sakharov test. For this purpose, six rabbits of both sexes weighting from 2.0 to 2.5 kg were injected with thymogen under sterile conditions subcutaneously on one side of the back with the dose of 10 mg/kg in 1.0 ml of sodium chloride isotonic solution and 1 ml of hors serum subcutaneously into the back on the other side. The rabbits of the control group were injected, instead of thymogen, with 1 ml of sodium chloride isotonic solution. The injections of thymogen and of horse serum were repeated for 6 times with a 5-6 days' interval.
# [1] = test system: allergic agglutinating autoantibodies; details: in vivo, iv
substance,measurement,setting,value
thymogen,"Allergenicity (conclusion, standard methods)",rabbits,not allergenic
same,Titer growth of allergic agglutinating autoantibodies,[1],not accompanied by any titer growth
